# Source: patent publication US20260083704A1, “LXR MODULATORS WITH BICYCLIC CORE MOIETY FOR TREATING DYSLIPIDEMIAS” (OrsoBio, Inc., priority 2022, published 2026)
# Key:
# [1] = Short term HFD mouse model: plasma and liver exposure; format: in vivo; conditions: HFD mice, 4 h after final dose
# Procedure: (§1) The in vivo transcriptional regulation of several LXR target genes by LXR modulators was assessed in mice.
# (§2) For this, C57BL/6J were purchased from Elevage Janvier (Rennes, France) at the age of 8 weeks. After an acclimation period of two weeks, animals were prefed on a high fat diet (HFD) (Ssniff Spezialdiäten GmbH, Germany, Surwit EF D12330 mod, Cat. No. E15771-34), with 60 kcal % from fat plus 1% (w/w) extra cholesterol (Sigma-Aldrich, St. Louis, MO) for 5 days. Animals were maintained on this diet during treatment with LXR modulators. The test compounds were formulated in 0.5% hydroxypropylmethylcellulose (HPMC) and administered in three doses (from 1.5 to 20 mg/kg each) by oral gavage according to the following schedule: on day one, animals received treatment in the morning and the evening (ca. 17:00), on day two animals received the final treatment in the morning after a 4 h fast and were sacrificed 4 h thereafter. Animal work was conducted according to the national guidelines for animal care in Germany.
# Upon termination, liver was collected, dipped in ice cold PBS for 30 seconds and cut into appropriate pieces. Pieces were snap frozen in liquid nitrogen and stored at −80° C. For the clinical chemistry analysis from plasma, alanine aminotransferase (ALT, IU/mL), cholesterol (CHOL, mg/dL) and triglycerides (TG, mg/dL) were determined using a fully-automated bench top analyzer (Respons®910, DiaSys Greiner GmbH, Flacht, Germany) with system kits provided by the manufacturer.
# [2] = tested on: LXR target genes (Scd1, Fas, Srebp1) in liver; experiment: Short term HFD mouse model: gene expression in liver tissue; format: in vivo; conditions: HFD mice, expression normalized to Tbp
# Procedure: as §1, §2
# Analysis of gene expression in liver tissue. To obtain total RNA from frozen liver tissue, samples (25 mg liver tissue) were first homogenized with RLA buffer (4M guanidin thiocyanate, 10 mM Tris, 0.97% w:v β-mercapto-ethanol). RNA was prepared using a SV 96 total RNA Isolation system (Promega, Madison, Wisconsin, USA) following the manufacturer's instructions. cDNAs were synthesized from 0.8-1 μg of total RNA using All-in-One cDNA Supermix reverse transcriptase (Absource Diagnostics, Munich, Germany). Quantitative PCR was performed and analyzed using Prime time Gene expression master mix (Integrated DNA Technologies, Coralville, Iowa, USA) and a 384-format ABI 7900HT Sequence Detection System (Applied Biosystems, Foster City, USA). The expression of the following genes was analysed: Stearoyl-CoA desaturase1 (Scd1), fatty acid synthase (Fas) and sterol regulatory element-binding protein1 (Srebp1). Specific primer and probe sequences (commercially available) are listed in Table 3. qPCR was conducted at 95° C. for 3 min, followed by 40 cycles of 95° C. for 15 s and 60° C. for 30 s. All samples were run in duplicates from the same RT-reaction. Gene expression was expressed in arbitrary units and normalized relative to the mRNA of the housekeeping gene TATA box binding protein (Tbp) using the comparative Ct method.
# [3] = three oral doses of 10 mg/kg over two days
# [4] = Mus musculus, 4 h, three oral doses of 10 mg/kg, read-out: Scd1 suppresion compared to vehicle
# [5] = three oral doses of 20 mg/kg over two days
Structure (SMILES),"liver exposure 4 h [1, 3]","liver/plasma ratio 4 h [1, 3]","plasma exposure 4 h [1, 3]",Srebp1c suppr. compared to vehicle ([2]; three oral doses of 10 mg/kg),"response vs control in vivo at 10 mg/kg [2, 4] [%]","liver exposure 4 h [1, 5]","liver/plasma ratio 4 h [1, 5]","plasma exposure 4 h [1, 5]",Fasn suppression compared to vehicle ([2]; three oral doses of 20 mg/kg),"response vs control in vivo at 20 mg/kg ([2]; Mus musculus, 4 h, three oral doses of 20 mg/kg, read-out: Scd1 suppresion compared to vehicle) [%]",Fasn suppression compared to vehicle ([2]; three oral doses of 10 mg/kg)
N#Cc1cccc(C#N)c1-c1c(-c2cccc(-c3ccc(C(=O)O)cc3F)c2)n(S(=O)(=O)c2ccc(C(F)F)cc2)c2ccc(F)cc12 [11/51],C (1 μM to ≤10 μM),C (30 to ≤100),D (<100 nM),D (<0.3),< 30,–,–,–,–,–,–
N#Cc1cccc(C#N)c1-c1c(-c2cccc(-c3c(F)cc(C(=O)O)cc3F)c2)n(S(=O)(=O)c2ccc(C(F)F)cc2)c2ccc(F)cc12 [11/53],C (1 μM to ≤10 μM),C (30 to ≤100),D (<100 nM),D (<0.3),< 30,–,–,–,–,–,–
N#Cc1cccc(C#N)c1-c1c(-c2cccc([C@H]3CC[C@H](C(=O)O)CC3)c2)n(S(=O)(=O)c2ccc(C(F)F)cc2)c2ccc(F)cc12 [11/62],C (1 μM to ≤10 μM),B (5 to ≤30),C (100 nM to <300 nM),D (<0.3),< 30,–,–,–,–,–,–
N#Cc1cccc(C#N)c1-c1c(-c2cccc(-c3ccc(C(=O)O)cc3Cl)c2)n(S(=O)(=O)C2CCC(F)(F)CC2)c2ccc(F)cc12 [11/63],C (1 μM to ≤10 μM),B (5 to ≤30),D (<100 nM),D (<0.3),30 to 60,–,–,–,–,–,–
N#Cc1cccc(C#N)c1-c1c(-c2cccc(-c3cc(F)c(C(=O)O)cc3Cl)c2)n(S(=O)(=O)c2ccc(C(F)F)cc2)c2ccc(F)cc12 [11/65],C (1 μM to ≤10 μM),C (30 to ≤100),D (<100 nM),D (<0.3),< 30,–,–,–,–,–,–
Cc1ccc(S(=O)(=O)n2c(-c3cccc(-c4ccc(C(=O)O)cc4)c3)c(-c3ccsc3C#N)c3cc(F)ccc32)cc1C [23/2],–,–,–,–,–,A (<300 nM),A (<5),C (100 nM to <300 nM),C (0.3 to ≤0.6),< 30,–
CS(=O)(=O)NC(=O)c1ccc(-c2cccc(-c3c(-c4c(C#N)cccc4C#N)c4cc(F)ccc4n3S(=O)(=O)c3ccc(C(F)F)cc3)c2)c(Cl)c1 [32/5],B (300 nM to ≤1 μM),B (5 to ≤30),D (<100 nM),C (0.3 to ≤0.6),30 to 60,–,–,–,–,–,–
N#Cc1cccc(C#N)c1-c1c(-c2cccc(-c3ccc(C(=O)NCC(=O)O)cc3Cl)c2)n(S(=O)(=O)c2ccc(C(F)F)cc2)c2ccc(F)cc12 [Compound 21/3],C (1 μM to ≤10 μM),D (>100),D (<100 nM),–,< 30,–,–,–,–,–,C (0.3 to ≤0.6)
